In paper PMC10893631, “Receptor-based pharmacophore modeling, molecular docking, synthesis and biological evaluation of novel VEGFR-2, FGFR-1, and BRAF multi-kinase inhibitors” (BMC Chemistry, 2024):
Like-named read-outs stand apart in the source and are kept apart here.

Tests used:
[1] = molecular target: T1, VEGFR-2 (Homo sapiens, UniProt P35968); assay: VEGFR-2 kinase assay kit (BPS), Kinase-Glo Max luminescence; format: biochemical; details: VEGFR-2, single dose 10 µM, duplicate, mean ± SD
T1 construct: purchased BPS Biosciences 40325
T1 sequence (P35968 20-1356): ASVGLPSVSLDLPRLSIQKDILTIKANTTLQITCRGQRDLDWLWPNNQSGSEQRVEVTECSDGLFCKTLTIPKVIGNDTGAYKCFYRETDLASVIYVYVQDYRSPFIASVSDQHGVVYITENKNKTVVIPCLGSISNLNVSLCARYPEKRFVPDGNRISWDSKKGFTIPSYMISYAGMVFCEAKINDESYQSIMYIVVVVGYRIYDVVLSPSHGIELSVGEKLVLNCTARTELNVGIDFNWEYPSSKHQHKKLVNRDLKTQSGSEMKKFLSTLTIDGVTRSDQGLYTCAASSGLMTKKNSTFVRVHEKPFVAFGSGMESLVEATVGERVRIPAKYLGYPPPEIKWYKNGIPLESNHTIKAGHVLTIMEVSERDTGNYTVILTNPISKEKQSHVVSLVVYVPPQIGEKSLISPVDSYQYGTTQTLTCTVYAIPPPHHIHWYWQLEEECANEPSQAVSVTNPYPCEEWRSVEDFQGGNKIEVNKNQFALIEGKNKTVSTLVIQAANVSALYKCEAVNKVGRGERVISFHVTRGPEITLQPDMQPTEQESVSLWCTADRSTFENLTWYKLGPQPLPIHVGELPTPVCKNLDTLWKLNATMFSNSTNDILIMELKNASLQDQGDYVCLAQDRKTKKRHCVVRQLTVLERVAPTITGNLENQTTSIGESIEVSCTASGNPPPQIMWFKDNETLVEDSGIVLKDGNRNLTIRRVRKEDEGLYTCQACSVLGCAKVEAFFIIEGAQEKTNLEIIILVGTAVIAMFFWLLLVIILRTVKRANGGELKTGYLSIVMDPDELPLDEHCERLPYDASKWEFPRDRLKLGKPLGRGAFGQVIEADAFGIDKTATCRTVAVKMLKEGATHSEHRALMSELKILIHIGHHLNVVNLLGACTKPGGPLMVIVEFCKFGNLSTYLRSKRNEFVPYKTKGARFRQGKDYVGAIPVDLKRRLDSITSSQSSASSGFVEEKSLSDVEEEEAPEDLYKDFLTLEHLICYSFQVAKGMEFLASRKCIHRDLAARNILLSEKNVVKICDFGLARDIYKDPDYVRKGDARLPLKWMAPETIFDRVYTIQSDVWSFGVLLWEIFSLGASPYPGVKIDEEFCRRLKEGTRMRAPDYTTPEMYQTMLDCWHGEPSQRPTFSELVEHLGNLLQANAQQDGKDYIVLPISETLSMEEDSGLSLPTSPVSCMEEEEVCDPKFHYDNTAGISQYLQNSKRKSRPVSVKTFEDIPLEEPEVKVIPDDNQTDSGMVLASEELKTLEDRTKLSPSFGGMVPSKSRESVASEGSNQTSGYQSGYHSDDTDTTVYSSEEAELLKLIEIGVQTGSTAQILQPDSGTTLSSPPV

[2] = test system: NCI panel of 60 tumor cell lines; assay: NCI SRB growth inhibition, whole panel mean (single dose 10 µM / five-dose); format: cell-based, human; details: for GI50: mean over NCI cancer cell lines, five-dose
How it was run: (§1)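 Seeding varied with cell doubling time (5000–40,000 cells/well). Dilutions were 10-fold or ½ log, five levels in total. Sulforhodamine B staining (0.4% w/v, 10 min, room temperature) of TCA-fixed cells measured growth.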

[3] = test system: ACHN; assay: NCI SRB growth inhibition (single dose 10 µM / five-dose); format: cell-based, human; details: for GI50: ACHN, Renal cancer, five-dose
How it was run: as §1

[4] = test system: HCT-116; assay: as above; format: cell-based, human
How it was run: as §1

[5] = test system: HOP-92; assay: as above; format: cell-based, human
How it was run: as §1

[6] = test system: M14; assay: as above; format: cell-based, human; details: for GI50: M14, Melanoma, five-dose
How it was run: as §1

[7] = test system: MOLT-4; assay: as above; format: cell-based, human; details: for GI50: MOLT-4, Leukemia, five-dose
How it was run: as §1

[8] = test system: NCI-H226; assay: as above; format: cell-based, human; details: for GI50: NCI-H226, Non-small cell lung cancer, five-dose
How it was run: as §1

[9] = test system: NCI-H322M; assay: as above; format: cell-based, human; details: for GI50: NCI-H322M, Non-small cell lung cancer, five-dose
How it was run: as §1

[10] = test system: OVCAR-4; assay: as above; format: cell-based, human; details: for GI50: OVCAR-4, Ovarian cancer, five-dose
How it was run: as §1

[11] = test system: SN12C; assay: as above; format: cell-based, human; details: SN12C, Renal cancer, five-dose
How it was run: as §1

[12] = test system: U251; assay: as above; format: cell-based, human; details: for GI50: U251, CNS cancer, five-dose
How it was run: as §1

[13] = test system: UO-31; assay: as above; format: cell-based, human; details: for GI50: UO-31, Renal cancer, five-dose
How it was run: as §1

COc1cc(C=NNC(=O)c2ccc3[nH]c(-c4ccc(Cl)cc4)nc3c2)cc(OC)c1OC [8u, 2-(4-Chlorophenyl)-N'-(3,4,5-trimethoxybenzylidene)-1H-benzo[d]imidazole-5-carbohydrazide]
inhibition at 10 µM [1]: 80 ± 3.98% | inhibition at 10 µM ([2]; Homo sapiens, 10 µM, mean over NCI 60 cell lines, > 100% = lethal effect, read-out: mean growth inhibition % (GI%)): > 100% | GI50 ([2]; Homo sapiens): 7.98 µM | inhibition at 10 µM ([2]; Homo sapiens, mean over NCI panel of 60 tumor cell lines, 10 µM, read-out: Mean growth inhibition %): > 100% | inhibition at 10 µM ([3]; Homo sapiens, ACHN (Renal cancer), 10 µM, read-out: GI%): 69.9% | GI50 ([3]; Homo sapiens): 7.93 µM | GI50 ([4]; Homo sapiens, HCT-116): 3.26 µM | inhibition at 10 µM ([4]; Homo sapiens, HCT-116, read-out: GI%): > 100% | inhibition at 10 µM ([5]; Homo sapiens, HOP-92 (Non-small cell lung cancer), 10 µM, read-out: GI%): > 100% | GI50 ([5]; Homo sapiens, HOP-92, Non-small cell lung cancer, five-dose): 5.95 µM | inhibition at 10 µM ([6]; Homo sapiens, M14 (Melanoma), 10 µM, read-out: GI%): > 100% | GI50 ([6]; Homo sapiens): 3.77 µM | inhibition at 10 µM ([7]; Homo sapiens, MOLT-4 (Leukemia), 10 µM, read-out: GI%): 96% | GI50 ([7]; Homo sapiens): 3.58 µM | inhibition at 10 µM ([8]; Homo sapiens, NCI-H226 (Non-small cell lung cancer), 10 µM, read-out: GI%): > 100% | GI50 ([8]; Homo sapiens): 1.31 µM | inhibition at 10 µM ([9]; Homo sapiens, NCI-H322M (Non-small cell lung cancer), 10 µM, read-out: GI%): 96.1% | GI50 ([9]; Homo sapiens): 8.29 µM | inhibition at 10 µM ([10]; Homo sapiens, OVCAR-4 (Ovarian cancer), 10 µM, read-out: GI%): > 100% | GI50 ([10]; Homo sapiens): 2.35 µM | GI50 ([11]; Homo sapiens): 3.22 µM | inhibition at 10 µM ([12]; Homo sapiens, U-251, U251 (CNS cancer), 10 µM, read-out: GI%): > 100% | GI50 ([12]; Homo sapiens, U-251): 2.59 µM | inhibition at 10 µM ([13]; Homo sapiens, UO-31 (Renal cancer), 10 µM, read-out: GI%): 41.1% | GI50 ([13]; Homo sapiens): > 100 µM

N'-(2-Hydroxybenzylidene)-2-phenyl-1H-benzo[d]imidazole-5-carbohydrazide [8a]
% Inhibition [1]: 43.03 ± 2.32% | mean growth inhibition % (GI%) ([2]; 10 µM, mean over NCI 60 cell lines, > 100% = lethal effect): 97.73% | GI50 [2]: 3 µM | Mean growth inhibition % ([2]; mean over NCI panel of 60 tumor cell lines, 10 µM): 97.73% | GI% ([3]; ACHN (Renal cancer), 10 µM): L (GI% > 100) | GI50 [3]: 3.28 µM | GI% ([4]; HCT-116 (Colon cancer), 10 µM): L (GI% > 100) | GI50 ([4]; HCT-116, Colon cancer, five-dose): 0.88 µM | GI% ([5]; HOP-92 (Non-small cell lung cancer), 10 µM): L (GI% > 100) | GI% ([6]; M14 (Melanoma), 10 µM): 81.80% | GI50 [6]: 0.92 µM | GI% ([7]; MOLT-4 (Leukemia), 10 µM): 89.54% | GI50 [7]: 1.62 µM | GI% ([8]; NCI-H226 (Non-small cell lung cancer), 10 µM): 93.32% | GI50 [8]: 4.02 µM | GI% ([9]; NCI-H322M (Non-small cell lung cancer), 10 µM): 94.14% | GI50 [9]: 2.13 µM | GI% ([10]; OVCAR-4 (Ovarian cancer), 10 µM): 94.42% | GI50 [10]: 2.24 µM | GI50 [11]: 4.67 µM | GI% ([12]; U251 (CNS cancer), 10 µM): L (GI% > 100) | GI50 [12]: 2.11 µM | GI% ([13]; UO-31 (Renal cancer), 10 µM): 86.22% | GI50 [13]: 0.6 µM
